Source: patent US11214540B2, “Compositions for treating neurodegenerative diseases” (COGNITION THERAPEUTICS, INC., priority 2017, dated 2022)

Test: log P
Format: physicochemical
Description: The term “log P” refers to the partition coefficient of a compound. The partition coefficient is the ratio of concentrations of un-ionized compound in each of two solution phases, for example, octanol and water. To measure the partition coefficient of ionizable solute compounds, the pH of the aqueous phase is adjusted such that the predominant form of the compound is un-ionized. The logarithm of the ratio of concentrations of the un-ionized solute compound in the solvents is called log P. The log P is a measure of lipophilicity. For example, log Poct/wat=log([solute]octanol/[solute]un-ionized,water).
Combined Results for particular compounds described herein, with respect to log P, membrane trafficking (uM), sigma-2 receptor affinity, sigma-1 receptor affinity microsomal stability in mouse liver microsomes (MLM) (t1/2, min), t1/2 normalized to CT)10914 and in vitro toxicity potassium channel hERG (IC50, nM) are provided in Table 1: […]

SMILES	log P
CC(C)=CC(CC(C)(C)c1ccc(S(C)(=O)=O)cc1)NCC1CCOCC1 (stereo not shown) [Compound 88]	3.54
CC(C)=CC(CC(C)(C)c1ccc(S(C)(=O)=O)cc1)N1CCC(C(C)C)CC1 (stereo not shown) [Compound 89]	5.37
COc1ccc(C(C)(C)CC(c2ccccc2)N2CCCCC2)cc1 (stereo not shown) [Compound 116]	5.71
CC(C)(CC(c1ccccc1)N1CCCCC1)c1ccc(Cl)cc1 (stereo not shown) [Compound 117]	6.47
COc1ccc(C(C)(C)CC(c2ccccc2)N2CCOCC2)cc1 (stereo not shown) [Compound 118]	4.64
CC(C)(CC(c1ccccc1)N1CCC(C2CCOCC2)CC1)c1ccc(Cl)cc1 (stereo not shown) [Compound 119]	6.67
CC(C)(CC(c1ccccc1)N1CCOCC1)c1ccc(Cl)cc1 (stereo not shown) [Compound 120]	5.4
CC(C)(CC(NCC1CCOCC1)c1ccccc1)c1ccc(Cl)cc1 (stereo not shown) [Compound 121]	5.66
COc1ccc(C(C)(C)CC(c2ccccc2)N2CCC(C3CCOCC3)CC2)cc1 (stereo not shown) [Compound 122]	5.91
CC(C)=CC(CC(C)(C)c1ccc(N2CCOCC2)cc1)N1CCC2(CCOCC2)CC1 (stereo not shown) [Compound 147]	5.16
CC(C)=CC(CC(C)(C)c1ccc(N2CCOCC2)cc1)N1CCC(C)(O)CC1 (stereo not shown) [Compound 148]	4.14
CC(C)=CC(CC(C)(C)c1ccc(F)cc1)N1CCN(S(C)(=O)=O)CC1 (stereo not shown) [Compound 154]	3.37
CC(C)=CC(CC(C)(C)c1ccc(C(F)(F)F)cc1)N1CCN(C(=O)c2ccccc2)CC1 (stereo not shown) [Compound 155]	6.46
CC(C)=CC(CC(C)(C)c1ccc(Cl)cc1)N1CCN(C(=O)c2ccccc2)CC1 (stereo not shown) [Compound 157]	6.19
CC(C)=CC(CC(C)(C)c1ccc(C(F)(F)F)cc1)N1CCC(CCOC(C)C)CC1 (stereo not shown) [Compound 164]	7.1
CC(C)=CC(NCC1CCOCC1)C(C)(C)Oc1ccc(Cl)cc1 (stereo not shown) [Compound 165]	4.6
CC(C)=CC(NCC1CCOCC1)C(C)(C)Oc1ccccc1 (stereo not shown) [Compound 166]	3.99
COC1CN(C(C=C(C)C)CC(C)(C)c2ccc(Cl)cc2)C1 (stereo not shown) [Compound 167]	5.1
CC(C)=CC(CC(C)(C)c1ccc(OC(C)(C)C)cc1)N1CCC2(CCOCC2)CC1 (stereo not shown) [Compound 168]	6.17
CC(C)=CC(CC(C)(C)c1ccc(OC(C)(C)C)cc1)N1CCC(C)(O)CC1 (stereo not shown) [Compound 169]	5.15
CC(C)=CC(CC(C)(C)c1ccc(OC(C)(C)C)cc1)N1CCC(O)CC1 (stereo not shown) [Compound 170]	4.87

SMILES	log P
COCCCC1CCN(C(C=C(C)C)CC(C)(C)c2ccc(OC(C)C)cc2)CC1 (stereo not shown) [Compound 171]	6.5
COCCNC(C=C(C)C)C(C)(C)Oc1ccccc1 (stereo not shown) [Compound 172]	3.52
CC(C)=CC(NCC(C)C)C(C)(C)Oc1ccccc1 (stereo not shown) [Compound 173]	4.81
COCCNC(C=C(C)C)C(C)(C)Oc1ccc(F)cc1 (stereo not shown) [Compound 174]	3.67
COCCNC(C=C(C)C)C(C)(C)Oc1ccc(Cl)cc1 (stereo not shown) [Compound 175]	4.13
CC(C)=CC(NCC(C)C)C(C)(C)Oc1ccc(F)cc1 (stereo not shown) [Compound 176]	4.96
CC(C)=CC(NCC(C)C)C(C)(C)Oc1ccc(Cl)cc1 (stereo not shown) [Compound 177]	5.42
CC(C)=CC(CC(C)(C)c1ccc(OC(C)C)cc1)N1CCC(O)CC1 (stereo not shown) [Compound 178]	4.59
COCCCC1CCN(C(C=C(C)C)COc2ccc(F)cc2)CC1 (stereo not shown) [Compound 190]	4.63
CC(C)(CCN1CCC(C2CCOCC2)CC1)c1ccc(Cl)cc1 [Compound 193]	4.89
CC(C)=CC(CC(C)(C)c1ccc(Cl)cc1)N1CCN(C(=O)OC(C)(C)C)CC1 (stereo not shown) [Compound 194]	6.01
CC(C)=CC(CC(C)(C)c1ccc(F)cc1)N1CCN(S(=O)(=O)N(C)C)CC1 (stereo not shown) [Compound 195]	3.36
CCOC(=O)N1CCN(C(C=C(C)C)CC(C)(C)c2ccc(F)cc2)CC1 (stereo not shown) [Compound 196]	4.85
COC(=O)N1CCN(C(C=C(C)C)CC(C)(C)c2ccc(Cl)cc2)CC1 (stereo not shown) [Compound 197]	4.95
COC1CCN(C(C=C(C)C)CC(C)(C)c2ccccc2)CC1 (stereo not shown) [Compound 202]	4.62
CC(C)=CC(CC(C)(C)c1ccc(F)cc1)N1CCN(C)C(=O)C1 (stereo not shown) [Compound 203]	3.75
CC(C)=CC(CC(C)(C)c1ccccc1)N1CCC(C2CCOCC2)CC1 (stereo not shown) [Compound 204]	5.7
CC(C)=CC(CC(C)(C)c1ccc(C(F)(F)F)cc1)N1CCNC(=O)C1 (stereo not shown) [Compound 206]	4.26
CC(C)=CC(CC(C)(C)c1ccc(C(F)(F)F)cc1)N1CCN(S(=O)(=O)N(C)C)CC1 (stereo not shown) [Compound 207]	4.09
CCOC(=O)N1CCN(C(C=C(C)C)CC(C)(C)c2ccc(C(F)(F)F)cc2)CC1 (stereo not shown) [Compound 208]	5.58
CC(C)=CC(CC(C)(C)c1ccc(C(F)(F)F)cc1)N1CCN(C(=O)OCC(C)C)CC1 (stereo not shown) [Compound 209]	6.47

SMILES	log P
CC(C)=CC(CC(C)(C)c1ccc(Cl)cc1)N1CCC(O)(c2ccccc2)CC1 (stereo not shown) [Compound 211]	6.23
CCCCC1(O)CCN(C(C=C(C)C)CC(C)(C)c2ccc(Cl)cc2)CC1 (stereo not shown) [Compound 214]	6.27
CC(C)=CC(CC(C)(C)c1ccc(F)cc1)N1CCC(C)(OC(=O)NC(C)C)CC1 (stereo not shown) [Compound 215]	5.5
CCCCC1(OC(=O)NC(C)C)CCN(C(C=C(C)C)CC(C)(C)c2ccc(C(F)(F)F)cc2)CC1 (stereo not shown) [Compound 216]	7.65
COCCC1(O)CCN(C(C=C(C)C)CC(C)(C)c2ccccc2)CC1 (stereo not shown) [Compound 219]	3.91
CC(C)=CC(CC(C)(C)c1ccccc1)N1CCC(O)(c2ccccc2)CC1 (stereo not shown) [Compound 220]	5.62
CC(C)=CC(CC(C)(C)c1ccc(F)cc1)N1CCC(O)(c2ccccc2)CC1 (stereo not shown) [Compound 221]	5.76
CCCCC1(O)CCN(C(C=C(C)C)CC(C)(C)c2ccc(F)cc2)CC1 (stereo not shown) [Compound 222]	5.81
CCCCC1(O)CCN(C(C=C(C)C)CC(C)(C)c2ccccc2)CC1 (stereo not shown) [Compound 223]	5.67
CC(C)=CC(CC(C)(C)c1ccc(Cl)cc1)N1CCNC(=O)C1 (stereo not shown) [Compound 224]	3.98
CCCCC1(OC(=O)NC(C)C)CCN(C(C=C(C)C)CC(C)(C)c2ccc(Cl)cc2)CC1 (stereo not shown) [Compound 225]	7.37
CC(C)=CC(CC(C)(C)c1ccccc1)N1CCNC(=O)C1 (stereo not shown) [Compound 227]	3.38
CC(C)=CC(CC(C)(C)c1ccc(C(F)(F)F)cc1)N1CCC(C)(OC(=O)NC(C)C)CC1 (stereo not shown) [Compound 228]	6.24
COCC1CCCN1C(C=C(C)C)CC(C)(C)c1ccc(Cl)cc1 (stereo not shown) [Compound 234]	5.68
COC[C@H]1CCCN1[C@H](C=C(C)C)CC(C)(C)c1ccc(Cl)cc1 [Compound 235]	5.68
CC(C)=CC(CC(C)(C)c1ccc(Cl)cc1)N1CCC[C@H]1CO (stereo partly shown) [Compound 237]	5.04
CC(C)=C[C@H](CC(C)(C)c1ccc(Cl)cc1)N1CCC[C@@H]1CO [Compound 240]	5.04
CC(C)=C[C@@H](CC(C)(C)c1ccc(F)cc1)N1CCC[C@@H]1CO [Compound 241]	4.57
CC(C)=C[C@H](CC(C)(C)c1ccc(C(F)(F)F)cc1)N1CCC[C@@H]1CO [Compound 243]	5.31
